What was measured:
adipose tissue = test: Clinical study: histological analysis of adipose tissue after subcutaneous injection into areas with localized cellulite; assay type: in vivo, patient; settings: surfactant added to ascorbate composition
Method: Step (c) Ten ml of diluents solution were used to reconstitute the mixture of sodium ascorbate and sodium chloride. Cosmetic Treatment: 5 ml of reconstituted solutions were given by subcutaneous injection into local areas with localized cellulite; lipolytic effect, adverse reactions and necrosis were evaluated by histological analysis.
The cosmetic treatment using the composition according to the invention was administered to a group of subjects who were well informed of the procedure; all gave their consent to the use of the results of the study for obtaining a patent grant. […]
A more specific and in-depth observation of the lower limbs was first made to assess, visually, the presence, location and extent of the irregularities of skin surface typical of cellulite. […] By photographic, thermographic and ultrasound instrumental investigations, the condition of each subject have been determined and classified according to a cellulite evaluation scale, ad hoc elaborated for the present study: • grade 0: exempt subjects; • grade 1: local skin rupture, characterized by few presence of irregular skin surface (madras skin or mattres phenomenon) with pit shaped introflexions; • grade 2: generalized skin rupture (skin roughness or orange peel skin). […]

[1] = hydrophilic/lipophilic ratio; cited from earlier work
[2] = also printed as 0.0176% to 0.176%; Sakagami H. et al. 1996; cited from earlier work
adipocytes = settings: concentration of 0.06% (3.3 mM); Gao Yan et al. 2009; cited from earlier work

## CCCCCCCCCCCCCCCC(=O)OC[C@H](O)[C@H]1OC(=O)C(O)=C1O [Ascorbyl Palmitate, ascorbyl palmitate]
Adipose tissue
  ability of surfactants to determine the improvement of the lipolytic action of ascorbic acid salt: particularly effective
[1]
  HLB: HLB: 4-5

## CCCCCCCC/C=C\CCCCCCCC(=O)OCC(O)CO (stereo not drawn) [Glyceryl monooleate]
[1]
  HLB: HLB: 2-3

## O=C1O[C@H]([C@@H](O)CO)C(O)=C1O [ascorbic acid]
[2]
  concentration range to induce an apoptotic effect: 1 to 10 mM
adipocytes
  apoptotic damage and adipocytes decrease: ineffective

## Polysorbate 80
[1]
  HLB: HLB: 10-12
